Test results: US20260262643A1, “HERBICIDAL BENZOXAZINES” (FMC CORPORATION, priority 2022, published 2026)

Assays:
[1] = tested on: ragweed; assay: Test C postemergence; format: in vivo, Ambrosia artemisiifolia; settings: Postemergence, 125 g ai/ha; 0 to 100 scale (0 no effect, 100 complete control), 10 days
In short: (§1)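 Pre: seeds in loam/sand, directed soil spray. Post: 1–2 leaf plants, 2–10 cm. Cmpd in non-phytotoxic solvent + surfactant. Greenhouse 10 d; visual rating vs untreated, 0 = none, 100 = complete control.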

[2] = tested on: ducksalad; assay: Test D flooded paddy test; format: in vivo, Heteranthera limosa; settings: 250 g ai/ha, applied to paddy water, visual rating after 13 to 14 days, scale 0 to 100 (0 no effect, 100 complete control)
In short: (§2)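 At the 2-leaf stage, floodwater 3 cm deep received the test compound; that depth persisted throughout. Plants scored visually 13 to 14 days on, 0 (no effect) to 100 (complete control), dash indicating no result.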

[3] = tested on: wheat; assay: Test C preemergence; format: in vivo, Triticum aestivum
In short: as §1

[4] = tested on: kochia; assay: Test C preemergence; format: in vivo, Bassia scoparia
In short: as §1

[5] = tested on: galium; assay: Test C postemergence; format: in vivo, Galium aparine; settings: 10 days, 0 to 100 scale (0 no effect, 100 complete control)
In short: as §1

[6] = tested on: soybean; assay: Test C preemergence; format: in vivo, Glycine max
In short: as §1

[7] = tested on: green foxtail; assay: Test C postemergence; format: in vivo, Setaria viridis; settings: 10 days, 0 to 100 scale (0 no effect, 100 complete control)
In short: as §1

[8] = tested on: soybean; assay: Test C postemergence; format: in vivo, Glycine max; settings: Postemergence, 125 g ai/ha; 0 to 100 scale (0 no effect, 100 complete control), 10 days
In short: as §1

[9] = tested on: ryegrass, Italian; assay: Test C postemergence; format: in vivo, Lolium multiflorum; settings: Postemergence, 125 g ai/ha; 0 to 100 scale (0 no effect, 100 complete control), 10 days
In short: as §1

[10] = tested on: green foxtail; assay: Test C preemergence; format: in vivo, Setaria viridis
In short: as §1

[11] = tested on: ragweed; assay: Test C preemergence; format: in vivo, Ambrosia artemisiifolia
In short: as §1

[12] = tested on: wheat; assay: Test C postemergence; format: in vivo, Triticum aestivum; settings: Postemergence, 125 g ai/ha; 0 to 100 scale (0 no effect, 100 complete control), 10 days
In short: as §1

[13] = tested on: ryegrass, Italian; assay: Test C preemergence; format: in vivo, Lolium multiflorum
In short: as §1

[14] = tested on: blackgrass; assay: Test C postemergence; format: in vivo, Alopecurus myosuroides; settings: 10 days, 0 to 100 scale (0 no effect, 100 complete control)
In short: as §1

[15] = tested on: corn; assay: Test C preemergence; format: in vivo, Zea mays
In short: as §1

[16] = tested on: barnyardgrass; assay: Test D flooded paddy test; format: in vivo, Echinochloa crus-galli; settings: 250 g ai/ha, applied to paddy water, visual rating after 13 to 14 days, scale 0 to 100 (0 no effect, 100 complete control)
In short: as §2

[17] = tested on: blackgrass; assay: Test C preemergence; format: in vivo, Alopecurus myosuroides
In short: as §1

[18] = tested on: barnyardgrass; assay: Test C preemergence; format: in vivo, Echinochloa crusgalli
In short: as §1

[19] = tested on: oat, wild; assay: Test C postemergence; format: in vivo, Avena fatua; settings: 10 days, 0 to 100 scale (0 no effect, 100 complete control)
In short: as §1

[20] = tested on: barnyardgrass; assay: Test C postemergence; format: in vivo, Echinochloa crusgalli; settings: 10 days, 0 to 100 scale (0 no effect, 100 complete control)
In short: as §1

[21] = tested on: horseweed; assay: Test C postemergence; format: in vivo, Erigeron canadensis; settings: 10 days, 0 to 100 scale (0 no effect, 100 complete control)
In short: as §1

[22] = tested on: kochia; assay: Test C postemergence; format: in vivo, Bassia scoparia; settings: 10 days, 0 to 100 scale (0 no effect, 100 complete control)
In short: as §1

[23] = tested on: pigweed, palmer; assay: Test C postemergence; format: in vivo, Amaranthus palmeri; settings: 10 days, 0 to 100 scale (0 no effect, 100 complete control)
In short: as §1

[24] = tested on: oat, wild; assay: Test C preemergence; format: in vivo, Avena fatua
In short: as §1

[25] = tested on: sedge, umbrella; assay: Test D flooded paddy test; format: in vivo, Cyperus difformis; settings: 250 g ai/ha, applied to paddy water, visual rating after 13 to 14 days, scale 0 to 100 (0 no effect, 100 complete control)
In short: as §2

[26] = tested on: corn; assay: Test C postemergence; format: in vivo, Zea mays; settings: 10 days, 0 to 100 scale (0 no effect, 100 complete control)
In short: as §1

[27] = tested on: pigweed, palmer; assay: Test C preemergence; format: in vivo, Amaranthus palmeri
In short: as §1

[28] = tested on: rice; assay: Test D flooded paddy test; format: in vivo, Oryza sativa; settings: 250 g ai/ha, applied to paddy water, visual rating after 13 to 14 days, scale 0 to 100 (0 no effect, 100 complete control)
In short: as §2

[29] = 500 g ai/ha, preemergence, 0 to 100 scale (0 no effect, 100 complete control)
[30] = Preemergence, 125 g ai/ha, 0 to 100 scale, 0 no effect, 100 complete control

CCOC[C@H]1CN(C(=O)c2cc(-n3cnc(C(C)(C)C)n3)ccc2C)c2cccc(Cl)c2O1 [Compound 413]
45: Plant response rating, Sedge, Umbrella (Flood) [25]
90: Plant response rating, Galium ([5]; Postemergence, 125 g ai/ha) | Barnyardgrass plant response rating [18, 29] | Plant response rating, Kochia ([22]; 500 g ai/ha, postemergence) | Plant response rating, Kochia ([22]; Postemergence, 125 g ai/ha) | Plant response rating, Pigweed, Palmer [27, 30]
80: Kochia plant response rating [4, 29] | Plant response rating, Foxtail, Green [10, 30] | Plant response rating, Ryegrass, Italian [13, 30]
15: Plant response rating, Ducksalad (Flood) [2]
40: Plant response rating, Ryegrass, Italian [9] | Plant response rating, Barnyardgrass ([20]; 500 g ai/ha, postemergence)
70: Plant response rating, Ragweed [1] | Plant response rating, Soybean [6, 30] | Ragweed plant response rating [11, 29]
35: Plant response rating, Barnyardgrass (Flood) [16]
10: Plant response rating, Kochia [4, 30] | Plant response rating, Foxtail, Green ([7]; Postemergence, 125 g ai/ha) | Plant response rating, Wheat [12] | Corn plant response rating [15, 29] | Plant response rating, Oat, Wild ([19]; 500 g ai/ha, postemergence) | Plant response rating, Horseweed ([21]; Postemergence, 125 g ai/ha) | Plant response rating, Corn ([26]; Postemergence, 125 g ai/ha) | Plant response rating, Rice (Flood) [28]
60: Plant response rating, Foxtail, Green ([7]; 500 g ai/ha, postemergence) | Plant response rating, Ragweed [11, 30] | Blackgrass plant response rating [17, 29] | Plant response rating, Horseweed ([21]; 500 g ai/ha, postemergence)
0: Wheat plant response rating [3, 29] | Plant response rating, Wheat [3, 30] | Plant response rating, Corn [15, 30] | Plant response rating, Oat, Wild ([19]; Postemergence, 125 g ai/ha) | Oat, Wild plant response rating [24, 29] | Plant response rating, Oat, Wild [24, 30]
100: Plant response rating, Galium ([5]; 500 g ai/ha, postemergence) | Soybean plant response rating [6, 29] | Plant response rating, Soybean [8] | Foxtail, Green plant response rating [10, 29] | Ryegrass, Italian plant response rating [13, 29] | Plant response rating, Pigweed, Palmer ([23]; 500 g ai/ha, postemergence) | Plant response rating, Pigweed, Palmer ([23]; Postemergence, 125 g ai/ha) | Pigweed, Palmer plant response rating [27, 29]
50: Plant response rating, Barnyardgrass [18, 30]
30: Plant response rating, Blackgrass [17, 30]
20: Plant response rating, Blackgrass ([14]; 500 g ai/ha, postemergence) | Plant response rating, Blackgrass ([14]; Postemergence, 125 g ai/ha) | Plant response rating, Barnyardgrass ([20]; Postemergence, 125 g ai/ha) | Plant response rating, Corn ([26]; 500 g ai/ha, postemergence)
